Laboratory results published in patent publication US20200405697A1, “Antitumor Agent” (Taiho Pharmaceutical Co., Ltd, priority 2017, published 2020).
pIC50: −log10 of the molar value.

Biological target: T1, human RNR (histidine tagged human M1 and human M2 proteins) (Homo sapiens, UniProt P23921)
T1 construct: made in house; host or cells: Escherichia coli
T1 sequence (P23921 1-792): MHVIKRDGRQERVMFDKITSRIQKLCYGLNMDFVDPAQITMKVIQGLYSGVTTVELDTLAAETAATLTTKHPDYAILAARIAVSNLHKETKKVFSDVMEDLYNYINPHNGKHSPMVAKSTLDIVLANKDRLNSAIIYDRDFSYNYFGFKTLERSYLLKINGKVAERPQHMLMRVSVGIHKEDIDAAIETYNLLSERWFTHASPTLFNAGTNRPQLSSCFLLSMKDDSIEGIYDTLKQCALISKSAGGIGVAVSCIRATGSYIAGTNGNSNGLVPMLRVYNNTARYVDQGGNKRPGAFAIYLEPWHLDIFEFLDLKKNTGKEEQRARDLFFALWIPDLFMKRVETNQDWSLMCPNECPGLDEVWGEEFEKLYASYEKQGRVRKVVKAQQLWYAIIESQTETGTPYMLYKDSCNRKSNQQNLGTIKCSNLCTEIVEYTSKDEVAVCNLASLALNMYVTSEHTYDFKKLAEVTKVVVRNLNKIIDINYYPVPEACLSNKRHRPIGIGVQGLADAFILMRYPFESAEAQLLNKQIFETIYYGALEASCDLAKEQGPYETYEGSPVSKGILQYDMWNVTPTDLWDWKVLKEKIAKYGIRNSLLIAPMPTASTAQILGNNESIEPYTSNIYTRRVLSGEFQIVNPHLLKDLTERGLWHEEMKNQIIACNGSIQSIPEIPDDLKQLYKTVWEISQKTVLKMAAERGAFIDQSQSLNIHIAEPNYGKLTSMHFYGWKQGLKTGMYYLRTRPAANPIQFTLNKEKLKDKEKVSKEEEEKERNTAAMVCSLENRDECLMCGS
Test: Human RNR inhibition effect (dCDP formation from CDP)
Format: biochemical
Conditions: 10 μM CDP, 37° C. for 30 minutes, read-out: RNR inhibitory activity IC50
How it was run: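 His-tagged human M1 (isoform 1) and N-terminal 59-aa-truncated M2 (isoform 2), E. coli-expressed, Ni-purified, preincubated 20 min with compound (1% DMSO). Reaction with 10 μM CDP, 2 mM ATP, 0.24 mM NADPH, 6 mM DTT, 4 mM Mg acetate, 100 mM KCl, 50 mM HEPES pH 7.2, 30 min at 37° C. dCDP formed quantified by reverse-phase HPLC after heat stop.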

pIC50	Compound
7.22	CNC(=O)c1nc(S(=O)(=O)N[C@H](c2n[nH]c(=O)o2)[C@H](C)c2c(F)ccc(C)c2C)ccc1Cl [Example 252, 3-chloro-6-(N-((1S,2R)-2-(6-fluoro-2,3-dimethylphenyl)-1-(5-oxo-4,5-dihydro-1,3,4-oxadiazol-2-yl)propyl)sulfamoyl)-N-methylpicolinamide]
7.10	Cc1ccc(F)c([C@@H](C)[C@H](NS(=O)(=O)c2ccc(Cl)c(C(=O)N(C)C)n2)c2n[nH]c(=O)o2)c1C [Example 253, 3-chloro-6-(N-((1S,2R)-2-(6-fluoro-2,3-dimethylphenyl)-1-(5-oxo-4,5-dihydro-1,3,4-oxadiazol-2-yl)propyl)sulfamoyl)-N,N-dimethylpicolinamide]
7.15	Cc1c(Cl)ccc(F)c1[C@@H](C)[C@H](NS(=O)(=O)c1ncc(Br)cc1C(N)=O)c1n[nH]c(=O)o1 [Example 254, 5-bromo-2-(N-((1S,2R)-2-(3-chloro-6-fluoro-2-methylphenyl)-1-(5-oxo-4,5-dihydro-1,3,4-oxadiazol-2-yl)propyl)sulfamoyl)nicotinamide]
6.92	Cc1ccc(F)c([C@@H](C)[C@H](NS(=O)(=O)c2cc(F)c(Cl)cc2C(N)=O)c2n[nH]c(=O)o2)c1C [Example 255, 5-chloro-4-fluoro-2-(N-((1S,2R)-2-(6-fluoro-2,3-dimethylphenyl)-1-(5-oxo-4,5-dihydro-1,3,4-oxadiazol-2-yl)propyl)sulfamoyl)benzamide]
6.38	Cc1ccc(F)c([C@@H](C)[C@H](NS(=O)(=O)c2c(Cl)cc(Cl)cc2C(N)=O)c2n[nH]c(=O)o2)c1C [Example 256, 3,5-dichloro-2-(N-((1S,2R)-2-(6-fluoro-2,3-dimethylphenyl)-1-(5-oxo-4,5-dihydro-1,3,4-oxadiazol-2-yl)propyl)sulfamoyl)benzamide]
7.00	Cc1cc(S(=O)(=O)N[C@H](c2n[nH]c(=O)o2)[C@H](C)c2c(F)ccc(C)c2C)c(C(N)=O)cc1Cl [Example 257, 5-chloro-2-(N-((1S,2R)-2-(6-fluoro-2,3-dimethylphenyl)-1-(5-oxo-4,5-dihydro-1,3,4-oxadiazol-2-yl)propyl)sulfamoyl)-4-methylbenzamide]
6.85	Cc1ccc(F)c([C@@H](C)[C@H](NS(=O)(=O)c2c(F)cc(Cl)cc2C(N)=O)c2n[nH]c(=O)o2)c1C [Example 258, 5-chloro-3-fluoro-2-(N-((1S,2R)-2-(6-fluoro-2,3-dimethylphenyl)-1-(5-oxo-4,5-dihydro-1,3,4-oxadiazol-2-yl)propyl)sulfamoyl)benzamide]
7.00	COc1cc(S(=O)(=O)N[C@H](c2n[nH]c(=O)o2)[C@H](C)c2c(F)ccc(C)c2C)c(C(N)=O)cc1Cl [Example 259, 5-chloro-2-(N-((1S,2R)-2-(6-fluoro-2,3-dimethylphenyl)-1-(5-oxo-4,5-dihydro-1,3,4-oxadiazol-2-yl)propyl)sulfamoyl)-4-methoxybenzamide]
6.44	COc1cc(C(N)=O)c(S(=O)(=O)N[C@H](c2n[nH]c(=O)o2)[C@H](C)c2c(F)ccc(C)c2C)cc1OC [Example 260, 2-(N-((1S,2R)-2-(6-fluoro-2,3-dimethylphenyl)-1-(5-oxo-4,5-dihydro-1,3,4-oxadiazol-2-yl)propyl)sulfamoyl)-4,5-dimethoxybenzamide]
7.05	Cc1ccc(F)c([C@@H](C)[C@H](NS(=O)(=O)c2cc3c(cc2C(N)=O)OCCO3)c2n[nH]c(=O)o2)c1C [Example 261, 7-(N-((1S,2R)-2-(6-fluoro-2,3-dimethylphenyl)-1-(5-oxo-4,5-dihydro-1,3,4-oxadiazol-2-yl)propyl)sulfamoyl)-2,3-dihydrobenzo[b][1,4]dioxin-6-carboxamide]
6.89	Cc1ccc(F)c([C@@H](C)[C@H](NS(=O)(=O)c2cc([N+](=O)[O-])c(Cl)cc2C(N)=O)c2n[nH]c(=O)o2)c1C [Example 262, 5-chloro-2-(N-((1S,2R)-2-(6-fluoro-2,3-dimethylphenyl)-1-(5-oxo-4,5-dihydro-1,3,4-oxadiazol-2-yl)propyl)sulfamoyl)-4-nitrobenzamide]
